Test system: HCV replicon
Assay: Cell-Based HCV Replicon Assay
Details: Hepatitis C virus, 72 h; replicon cells, replicon RNA level by real time PCR (Taqman) on day 3; EC90 = concentration to achieve ΔCT=3.2 over baseline; read-out: Biological activity (EC90, HCV replicon assay)
Method: To measure cell-based anti-HCV activity of selected compounds of the present invention, replicon cells were seeded at 5000 cells/well in 96-well collagen I-coated Nunc plates in the presence of the test compound. Various concentrations of test compound, typically in 10 serial 2-fold dilutions, were added to the assay mixture, with the starting concentration ranging from 250 µM to 1 μM. The final concentration of DMSO was 0.5%, fetal bovine serum was 5%, in the assay media. Cells were harvested on day 3 by the addition of 1× cell lysis buffer (Ambion cat #8721). The replicon RNA level was measured using real time PCR (Taqman assay). The amplicon was located in 5B. The PCR primers were: 5B.2F, ATGGACAGGCGCCCTGA (SEQ. ID NO. 1); 5B.2R, […] (SEQ. ID NO. 2); the probe sequence was FAM-labeled CACGCCATGCGCTGCGG (SEQ. ID NO. 3). GAPDH RNA was used as endogenous control and was amplified in the same reaction as NS5B (multiplex PCR) using primers and VIC-labeled probe recommended by the manufacturer (PE Applied Biosystem). The real-time RT-PCR reactions were run on ABI PRISM 7900HT Sequence Detection System using the following program: 48° C. for 30 min, 95° C. for 10 min, 40 cycles of 95° C. for 15 sec, 60° C. for 1 min. The ΔCT values (CT-CT5BCTGAPDH) were plotted against the concentration of test compound and fitted to the sigmoid dose-response model using XLfit4 (MDL). EC50 was defined as the concentration of inhibitor necessary to achieve ΔCT=1 over the projected baseline; EC90 the concentration necessary to achieve ΔCT=3.2 over the baseline. Alternatively, to quantitate the absolute amount of replicon RNA, a standard curve was established by including serially diluted T7 transcripts of replicon RNA in the Taqman assay. All Taqman reagents were from PE Applied Biosystems. Such an assay procedure was described in detail in e.g. Malcolm et at, Antimicrobial Agents and Chemotherapy 50: 1013-1020 (2006).
HCV replicon assay data was calculated for selected compounds of the present invention using this method and is provided in the table below.

Q: How did the EC90 turn out when COC(=O)N[C@H](C(=O)N1CCC[C@H]1c1ncc(-c2ccc(-c3ccc4c(ccc5nc([C@@H]6CCCN6C(=O)[C@@H](NC(=O)OC)C(C)C)[nH]c54)c3)s2)[nH]1)C(C)C [Compound 1] was run?
A: The EC90 was under 1 nM.

Q: COC(=O)N[C@H](C(=O)N1CCC[C@H]1c1ncc(-c2cc(C)c(-c3ccc4c(ccc5nc([C@@H]6CCCN6C(=O)[C@@H](NC(=O)OC)C(C)C)[nH]c54)c3)s2)[nH]1)C(C)C [Compound 2] was tested. Which EC90 did it give?
A: The EC90 was under 1 nM.

Q: With COC(=O)N[C@H](C(=O)N1CCC[C@H]1c1nc2ccc(-c3ccc4c(ccc5nc([C@@H]6CCCN6C(=O)[C@@H](NC(=O)OC)C(C)C)[nH]c54)c3)cc2[nH]1)C(C)C [Compound 3] as the molecule, how does the EC90 read?
A: The EC90 was under 1 nM.

Q: With CC(=O)N1CCC[C@H]1c1nc2ccc(-c3ccc4c(ccc5nc([C@@H]6CCCN6C(=O)OC(C)(C)C)[nH]c54)c3)cc2[nH]1 [Compound 4] as the molecule, how does the EC90 read?
A: Its EC90 is at least 1000 nM.

Q: For COC(=O)N[C@H](C(=O)N1CCC[C@H]1c1nc2ccc3cc(-c4ccc5nc([C@@H]6CCCN6C(C)=O)[nH]c5c4)ccc3c2[nH]1)C(C)C [Compound 5], which EC90 is on record?
A: The EC90 was under 1 nM.

Q: CC(=O)N1CCC[C@H]1c1nc2ccc(-c3ccc4c(ccc5nc([C@@H]6CCCN6)[nH]c54)c3)cc2[nH]1 [Compound 6] was tested. Which EC90 did it give?
A: Its EC90 is 1 to 999 nM.

Q: How did the EC90 turn out when COC(=O)N[C@H](C(=O)N1CCC[C@H]1c1nc2cc(F)c(-c3ccc4c(ccc5nc([C@@H]6CCCN6C(=O)[C@@H](NC(=O)OC)C(C)C)[nH]c54)c3)cc2[nH]1)C(C)C [Compound 7] was run?
A: Its EC90 is under 1 nM.

Q: For CC(C)(C)OC(=O)N1CCCC[C@H]1c1nc2ccc(-c3ccc4c(ccc5nc([C@@H]6CCCN6C(=O)OC(C)(C)C)[nH]c54)c3)cc2[nH]1 [Compound 8], which EC90 is on record?
A: The EC90 was 1 to 999 nM.

Q: Which EC90 does the source give for CC(C)(C)OC(=O)N1CC(F)(F)C[C@H]1c1nc2ccc(-c3ccc4c(ccc5nc([C@@H]6CCCN6C(=O)OC(C)(C)C)[nH]c54)c3)cc2[nH]1 [Compound 9] here?
A: The EC90 was 1 to 999 nM.

Q: With COC(=O)N[C@H](C(=O)N1CCCC[C@H]1c1nc2ccc(-c3ccc4c(ccc5nc([C@@H]6CCCN6)[nH]c54)c3)cc2[nH]1)C(C)C [Compound 10] as the molecule, how does the EC90 read?
A: Its EC90 is 1 to 999 nM.

Q: COC(=O)N[C@H](C(=O)N1CCCC[C@H]1c1nc2ccc(-c3ccc4c(ccc5nc([C@@H]6CCCN6C(=O)[C@@H](NC(=O)OC)C(C)C)[nH]c54)c3)cc2[nH]1)C(C)C [Compound 11] was tested. Which EC90 did it give?
A: Its EC90 is under 1 nM.

Q: COC(=O)N[C@H](C(=O)N1CC(F)(F)C[C@H]1c1nc2ccc(-c3ccc4c(ccc5nc([C@@H]6CCCN6C(=O)[C@@H](NC(=O)OC)C(C)C)[nH]c54)c3)cc2[nH]1)C(C)C [Compound 12] was tested. Which EC90 did it give?
A: The EC90 was under 1 nM.

Q: How did the EC90 turn out when CC(C)[C@H](NC(=O)OC(C)(C)C)C(=O)N1CC(F)(F)C[C@H]1c1nc2ccc(-c3ccc4c(ccc5nc([C@@H]6CCCN6C(=O)[C@@H](NC(=O)OC(C)(C)C)C(C)C)[nH]c54)c3)cc2[nH]1 [Compound 13] was run?
A: The EC90 was under 1 nM.

Q: Which EC90 does the source give for CC(C)[C@H](N)C(=O)N1CC(F)(F)C[C@H]1c1nc2ccc(-c3ccc4c(ccc5nc([C@@H]6CCCN6C(=O)[C@@H](N)C(C)C)[nH]c54)c3)cc2[nH]1 [Compound 14] here?
A: Its EC90 is 1 to 999 nM.

Q: How did the EC90 turn out when Cc1cc(-c2cnc([C@@H]3CCCN3C(=O)OC(C)(C)C)[nH]2)sc1-c1ccc2c(ccc3nc([C@@H]4CCCN4C(=O)OC(C)(C)C)[nH]c32)c1 [Compound 15] was run?
A: The EC90 was 1 to 999 nM.

Q: How did the EC90 turn out when COC(=O)N[C@H](C(=O)N1CCC[C@H]1c1nc2ccc(-c3sc4ccc(-c5ccc6c(ccc7nc([C@@H]8CCCN8C(=O)[C@@H](NC(=O)OC)C(C)C)[nH]c76)c5)cc4c3C)cc2[nH]1)C(C)C [Compound 16] was run?
A: Its EC90 is under 1 nM.

Q: COC(=O)N[C@H](C(=O)N1CCC[C@H]1c1nc2ccc(-c3ccc4c(ccc5nc([C@@H]6CCCN6)[nH]c54)c3)cc2[nH]1)C(C)C [Compound 17] was tested. Which EC90 did it give?
A: The EC90 was 1 to 999 nM.

Reference: patent US9796705B2, “Fused tricyclic compounds and methods of use thereof for the treatment of viral diseases” (Merck Sharp & Dohme Corp., priority 2009, dated 2017)
